According to patent US11918659B2, “Materials and methods for inducing therapeutic hypothermia in a mammalian subject” (priority 2018, dated 2024):

Test system: TRPV1-overexpressed HEK293 cells
Settings: FIGS. 1F-1K, tested concentrations 0-5 μM

**Q.** `CC(C)(C)c1cc2c(O)c(c1)Cc1cc(C(C)(C)C)cc(c1O)Cc1cc(C(C)(C)C)cc(c1O)Cc1cc(C(C)(C)C)cc(c1O)C2` [4-tert-Butylcalix[4]arene] was tested. Which “toxicity on the cells of the calixarene derivative in the formulation” value did it give?
**A.** Its value is “did not cause any toxicity”.
